US20090325947A1, “NITRATE ESTERS OF PIPERIDINES” (priority 2006, published 2009)

Tested on: phenylephrine-precontracted vessels (thoracic aorta or femoral vein rings)
Experiment: in vitro vascular reactivity test: relaxation of phenylephrine-precontracted aorta or vein rings
Settings: at 100 μM; relative to phenylephrine (0.1 μM)-induced contractile tone
Excerpt: The determination of the nitrogen monoxide-releasing properties of a compound, be it by enzymatic or non-enzymatic action, can be carried out by means of in vitro vascular reactivity tests. The in vitro vascular reactivity test measures the ability of the released nitrogen monoxide to relax a pretensioned aorta ring or vein ring which is kept in an organ chamber. […] The thoracic aorta or the femoral vein is isolated from sacrificed and exsanguinated Wistar rats and cut up to give rings 2 mm long. The vascular rings are stored in organ chambers. Changes in the development of tension after the action of compounds are recorded by an isometric signal transmitter, which is connected to a computerized detection system. The computer program analyses time curves, period and size amounts between contractions.

| Compound | relaxation, percentage of the maximal vessel relaxation achieved with sodium nitroprusside (SNP) [%] |
| --- | --- |
| COCCCN1CCOc2ccc(CO[C@H]3CNC[C@@H](OC[C@H](COC)O[N+](=O)[O-])[C@@H]3c3ccc(COC[C@@H](C)COC)cc3)cc21 [Example 34, 6-[(3R,4R,5S)-4-[4-((S)-3-Methoxy-2-methylpropoxy-methyl)phenyl]-5-((S)-3-methoxy-2-nitrooxy-propoxy)piperidin-3-yloxymethyl]-4-(3-methoxy-propyl)-3,4-dihydro-2H-benzo[1,4]oxazine] | 8 |
| COCCCN1CCOc2ccc(CO[C@H]3CNC[C@@H](OC[C@@H](C)O[N+](=O)[O-])[C@@H]3c3ccc(COCCOC)cc3)cc21 [Example 6] | 15 |
| COCCCN1CCOc2ccc(CO[C@H]3CNC[C@@H](OC[C@@H](COC)O[N+](=O)[O-])[C@@H]3c3ccc(COC[C@@H](C)COC)cc3)cc21 [Example 14] | 25 |
| COCCCN1CCOc2ccc(CO[C@H]3CNC[C@@H](O[N+](=O)[O-])[C@@H]3c3ccc(COC[C@@H](C)COC)cc3)cc21 [Example 9, 6-{(3R,4R,5S)-4-[4-((S)-3-Methoxy-2-methylpropoxy-methyl)phenyl]-5-nitrooxypiperidin-3-yloxy-methyl}-4-(3-methoxypropyl)-3,4-dihydro-2H-benzo-[1,4]oxazine] | 8 |
| COCCCN1CCOc2ccc(CO[C@H]3CNC[C@@H](CO[N+](=O)[O-])[C@@H]3c3ccc(COC[C@@H](C)COC)cc3)cc21 [Example 21, 6-{(3R,4R,5S)-4-[4-((S)-3-Methoxy-2-methyl-propoxymethyl)phenyl]-5-nitro-oxymethylpiperidin-3-yloxymethyl}-4-(3-methoxypropyl)-3,4-dihydro-2H-benzo[1,4]oxazine] | 20 |
| COCCCN1CCOc2ccc(CO[C@H]3CNC[C@@H](OC[C@H](O)CO[N+](=O)[O-])[C@@H]3c3ccc(COC[C@@H](C)COC)cc3)cc21 [Example 8, (S)-1-{(3S,4R,5R)-4-[4-((S)-3-Methoxy-2-methyl-Propoxymethyl)phenyl]-5-[4-(3-methoxypropyl)-3,4-dihydro-2H-benzo[1,4]oxazin-6-ylmethoxy]-piperidin-3-yloxy}-3-nitrooxypropan-2-ol] | 20 |
